According to PubChem BioAssay (NCI):
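48-hour exposure; five concentrations; linearly interpolated endpoints. The concentration for 50% growth inhibition is given as GI50. TGI denotes the concentration required for complete inhibition of growth.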

Key:
Assay in all cases: NCI-60 cell line screen, 48 h
NCI-H522 lung = test system: NCI-H522 lung
HT29 colon = test system: HT29 colon
T-47D breast = test system: T-47D breast
SF-295 CNS = test system: SF-295 CNS
MALME-3M melanoma = test system: MALME-3M melanoma
MDA-MB-435 = test system: MDA-MB-435
SNB-75 CNS = test system: SNB-75 CNS
NCI-H226 lung = test system: NCI-H226 lung
NCI-H460 lung = test system: NCI-H460 lung
SNB-19 CNS = test system: SNB-19 CNS
HCT-116 colon = test system: HCT-116 colon
SN12C renal = test system: SN12C renal
BT-549 breast = test system: BT-549 breast
OVCAR-4 ovarian = test system: OVCAR-4 ovarian
HCC-2998 colon = test system: HCC-2998 colon
UO-31 renal = test system: UO-31 renal
HCT-15 colon = test system: HCT-15 colon
SK-MEL-2 melanoma = test system: SK-MEL-2 melanoma
HOP-62 NSCLC = test system: HOP-62 NSCLC
MOLT-4 leukemia = test system: MOLT-4 leukemia
SK-MEL-5 melanoma = test system: SK-MEL-5 melanoma
HS 578T breast = test system: HS 578T breast
KM12 colon = test system: KM12 colon
A549 NSCLC = test system: A549 NSCLC
CCRF-CEM leukemia = test system: CCRF-CEM leukemia
IGROV1 ovarian = test system: IGROV1 ovarian
SW-620 colon = test system: SW-620 colon
SF-268 CNS = test system: SF-268 CNS
OVCAR-8 ovarian = test system: OVCAR-8 ovarian
MDA-MB-231 breast = test system: MDA-MB-231 breast
RXF 393 renal = test system: RXF 393 renal
UACC-257 melanoma = test system: UACC-257 melanoma
DU-145 prostate = test system: DU-145 prostate
OVCAR-5 ovarian = test system: OVCAR-5 ovarian
UACC-62 melanoma = test system: UACC-62 melanoma
NCI/ADR-RES ovarian = test system: NCI/ADR-RES ovarian
COLO 205 colon = test system: COLO 205 colon
SR leukemia = test system: SR leukemia
CAKI-1 renal = test system: CAKI-1 renal
HOP-92 NSCLC = test system: HOP-92 NSCLC
PC-3 prostate = test system: PC-3 prostate
SF-539 CNS = test system: SF-539 CNS
A498 renal = test system: A498 renal
K-562 leukemia = test system: K-562 leukemia
HL-60(TB) leukemia = test system: HL-60(TB) leukemia
RPMI-8226 leukemia = test system: RPMI-8226 leukemia
786-0 renal = test system: 786-0 renal
OVCAR-3 ovarian = test system: OVCAR-3 ovarian
U251 CNS = test system: U251 CNS
M14 melanoma = test system: M14 melanoma
SK-MEL-28 melanoma = test system: SK-MEL-28 melanoma
MCF7 breast = test system: MCF7 breast
EKVX NSCLC = test system: EKVX NSCLC
ACHN renal = test system: ACHN renal
NCI-H23 lung = test system: NCI-H23 lung
TK-10 renal = test system: TK-10 renal

## COc1cnc2c(c1)C(=O)c1c-2n(CCCNC(C)C)c(=O)c2cc(Cl)ccc12
NCI-H522 lung
  GI50: 0.133 µM
  TGI: 1.97 µM
HT29 colon
  GI50: 0.398 µM
  TGI: 2.09 µM
T-47D breast
  GI50: 0.278 µM
  TGI: 2.55 µM
SF-295 CNS
  GI50: 0.0523 µM
  TGI: 1.43 µM
MALME-3M melanoma
  GI50: 1.5 µM
  TGI: 3.07 µM
MDA-MB-435
  GI50: 1.14 µM
  TGI: 2.42 µM
SNB-75 CNS
  GI50: 0.146 µM
  TGI: 1.59 µM
NCI-H226 lung
  GI50: 1.58 µM
  TGI: 30.1 µM
NCI-H460 lung
  GI50: 0.0372 µM
  TGI: 1.2 µM
SNB-19 CNS
  GI50: 0.439 µM
  TGI: 2.61 µM
HCT-116 colon
  GI50: 0.138 µM
  TGI: 1.01 µM
SN12C renal
  GI50: 0.417 µM
  TGI: 2.11 µM
BT-549 breast
  GI50: 0.698 µM
  TGI: 2.59 µM
OVCAR-4 ovarian
  GI50: 1.04 µM
  TGI: 2.7 µM
HCC-2998 colon
  GI50: 1.37 µM
  TGI: 2.85 µM
UO-31 renal
  GI50: 0.498 µM
  TGI: 2.04 µM
HCT-15 colon
  GI50: 1.08 µM
  TGI: 2.78 µM
SK-MEL-2 melanoma
  GI50: 13.3 µM
  TGI: 34.9 µM
HOP-62 NSCLC
  GI50: 0.0709 µM
  TGI: 1.53 µM
MOLT-4 leukemia
  GI50: 0.0397 µM
  TGI: 0.452 µM
SK-MEL-5 melanoma
  GI50: 1.14 µM
  TGI: 2.38 µM
HS 578T breast
  GI50: 1.52 µM
  TGI: 4.08 µM
KM12 colon
  GI50: 1.09 µM
  TGI: 2.45 µM
A549 NSCLC
  GI50: 0.0902 µM
  TGI: 2.07 µM
CCRF-CEM leukemia
  GI50: 0.0419 µM
  TGI: 1.06 µM
IGROV1 ovarian
  GI50: 0.756 µM
  TGI: 2.32 µM
SW-620 colon
  GI50: 0.0503 µM
  TGI: 1.71 µM
SF-268 CNS
  GI50: 0.148 µM
  TGI: 1.94 µM
OVCAR-8 ovarian
  GI50: 0.286 µM
  TGI: 2.13 µM
MDA-MB-231 breast
  GI50: 1.39 µM
  TGI: 3.18 µM
RXF 393 renal
  GI50: 0.568 µM
  TGI: 2.01 µM
UACC-257 melanoma
  GI50: 12.1 µM
  TGI: 32.8 µM
DU-145 prostate
  GI50: 0.173 µM
  TGI: 2.06 µM
OVCAR-5 ovarian
  GI50: 1.7 µM
  TGI: 3.5 µM
UACC-62 melanoma
  GI50: 0.303 µM
  TGI: 1.91 µM
NCI/ADR-RES ovarian
  GI50: 0.301 µM
  TGI: 2.75 µM
COLO 205 colon
  GI50: 0.111 µM
  TGI: 2 µM
SR leukemia
  GI50: 0.0577 µM
  TGI: 0.464 µM
CAKI-1 renal
  GI50: 0.0652 µM
  TGI: 2.15 µM
HOP-92 NSCLC
  GI50: 1.05 µM
  TGI: 2.44 µM
PC-3 prostate
  GI50: 0.948 µM
  TGI: 2.57 µM
SF-539 CNS
  GI50: 0.554 µM
  TGI: 1.87 µM
A498 renal
  GI50: 0.334 µM
  TGI: 5.27 µM
K-562 leukemia
  GI50: 0.451 µM
  TGI: 2.13 µM
HL-60(TB) leukemia
  GI50: 0.3 µM
  TGI: 1.69 µM
RPMI-8226 leukemia
  GI50: 1.21 µM
  TGI: 3.35 µM
786-0 renal
  GI50: 0.438 µM
  TGI: 1.98 µM
OVCAR-3 ovarian
  GI50: 1.39 µM
  TGI: 3.02 µM
U251 CNS
  GI50: 0.0654 µM
  TGI: 1.53 µM

## COc1cc2nc(-c3ccc(Cl)cc3)cc(OCCCN3CCCCC3)c2cc1OC
NCI-H522 lung
  GI50: 3.28 µM
  TGI: > 100 µM
M14 melanoma
  GI50: 0.412 µM
  TGI: 1.67 µM
T-47D breast
  GI50: 1.31 µM
  TGI: > 100 µM
SF-295 CNS
  GI50: 1.21 µM
  TGI: 2.81 µM
MALME-3M melanoma
  GI50: 1.74 µM
  TGI: 4.53 µM
SNB-75 CNS
  GI50: 1.98 µM
  TGI: 6.19 µM
SK-MEL-28 melanoma
  GI50: 1.45 µM
  TGI: 3.07 µM
NCI-H226 lung
  GI50: 1.12 µM
  TGI: 3.73 µM
NCI-H460 lung
  GI50: 0.842 µM
  TGI: > 100 µM
MCF7 breast
  GI50: 1.55 µM
  TGI: 4.11 µM
SNB-19 CNS
  GI50: 2.98 µM
  TGI: > 100 µM
HCT-116 colon
  GI50: 0.828 µM
  TGI: > 100 µM
SN12C renal
  GI50: 0.946 µM
  TGI: > 100 µM
OVCAR-4 ovarian
  GI50: 3.85 µM
  TGI: > 100 µM
HCT-15 colon
  GI50: 0.604 µM
  TGI: > 100 µM
HOP-62 NSCLC
  GI50: 2.37 µM
  TGI: > 100 µM
SK-MEL-5 melanoma
  GI50: 1.1 µM
  TGI: 2.32 µM
HS 578T breast
  GI50: 2.11 µM
  TGI: 7.18 µM
KM12 colon
  GI50: 3.07 µM
  TGI: > 100 µM
A549 NSCLC
  GI50: 1.9 µM
  TGI: > 100 µM
CCRF-CEM leukemia
  GI50: 2.79 µM
  TGI: > 100 µM
IGROV1 ovarian
  GI50: 0.838 µM
  TGI: > 100 µM
SW-620 colon
  GI50: 3.09 µM
  TGI: > 100 µM
SF-268 CNS
  GI50: 3.2 µM
  TGI: > 100 µM
OVCAR-8 ovarian
  GI50: 1.77 µM
  TGI: > 100 µM
MDA-MB-231 breast
  GI50: 0.666 µM
  TGI: 4 µM
EKVX NSCLC
  GI50: 1.47 µM
  TGI: > 100 µM
RXF 393 renal
  GI50: 1.08 µM
  TGI: 3.9 µM
UACC-257 melanoma
  GI50: 1.92 µM
  TGI: 4.46 µM
DU-145 prostate
  GI50: 2.54 µM
  TGI: > 100 µM
ACHN renal
  GI50: 2.45 µM
  TGI: > 100 µM
OVCAR-5 ovarian
  GI50: 1.16 µM
  TGI: > 100 µM
UACC-62 melanoma
  GI50: 1.94 µM
  TGI: 4.42 µM
NCI/ADR-RES ovarian
  GI50: 0.898 µM
  TGI: > 100 µM
COLO 205 colon
  GI50: 0.582 µM
  TGI: > 100 µM
SR leukemia
  GI50: 0.374 µM
  TGI: 2.85 µM
CAKI-1 renal
  GI50: 0.287 µM
  TGI: 2.54 µM
NCI-H23 lung
  GI50: 2.95 µM
  TGI: > 100 µM
HOP-92 NSCLC
  GI50: 1.02 µM
  TGI: 6.24 µM
PC-3 prostate
  GI50: 1.74 µM
  TGI: > 100 µM
A498 renal
  GI50: 1.4 µM
  TGI: 3.82 µM
786-0 renal
  GI50: 2.62 µM
  TGI: > 100 µM
TK-10 renal
  GI50: 3.73 µM
  TGI: > 100 µM
OVCAR-3 ovarian
  GI50: 3.23 µM
  TGI: > 100 µM
U251 CNS
  GI50: 1.89 µM
  TGI: > 100 µM
